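In this assay, cells in 96-well plates receive the compound at five concentrations for 48 hours. Endpoints are linearly interpolated between the surrounding concentrations. GI50 marks 50% less growth. Definition used: TGI = concentration required for complete inhibition of growth.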
Columns and labels:
Assay in all cases: inhibition of tumour cell growth, NCI panel, 48 h
[1] = test system: 786-0 renal
[2] = test system: A498 renal
[3] = test system: A549 NSCLC
[4] = test system: ACHN renal
[5] = test system: BT-549 breast
[6] = test system: CAKI-1 renal
[7] = test system: CCRF-CEM leukemia
[8] = test system: COLO 205 colon
[9] = test system: DU-145 prostate
[10] = test system: HCC-2998 colon
[11] = test system: HCT-116 colon
[12] = test system: HCT-15 colon
[13] = test system: HL-60(TB) leukemia
[14] = test system: HOP-62 NSCLC
[15] = test system: HS 578T breast
[16] = test system: HT29 colon
[17] = test system: IGROV1 ovarian
[18] = test system: K-562 leukemia
[19] = test system: KM12 colon
[20] = test system: LOX IMVI melanoma
[21] = test system: M14 melanoma
[22] = test system: MALME-3M melanoma
[23] = test system: MCF7 breast
[24] = test system: MDA-MB-231 breast
[25] = test system: MDA-MB-435
[26] = test system: MOLT-4 leukemia
[27] = test system: NCI-H226 lung
[28] = test system: NCI-H23 lung
[29] = test system: NCI-H460 lung
[30] = test system: NCI-H522 lung
[31] = test system: NCI/ADR-RES ovarian
[32] = test system: OVCAR-3 ovarian
[33] = test system: OVCAR-4 ovarian
[34] = test system: OVCAR-5 ovarian
[35] = test system: OVCAR-8 ovarian
[36] = test system: PC-3 prostate
[37] = test system: RPMI-8226 leukemia
[38] = test system: RXF 393 renal
[39] = test system: SF-268 CNS
[40] = test system: SF-295 CNS
[41] = test system: SF-539 CNS
[42] = test system: SK-MEL-2 melanoma
[43] = test system: SK-MEL-28 melanoma
[44] = test system: SK-MEL-5 melanoma
[45] = test system: SK-OV-3 ovarian
[46] = test system: SN12C renal
[47] = test system: SNB-19 CNS
[48] = test system: SNB-75 CNS
[49] = test system: SR leukemia
[50] = test system: SW-620 colon
[51] = test system: T-47D breast
[52] = test system: TK-10 renal
[53] = test system: U251 CNS
[54] = test system: UACC-257 melanoma
[55] = test system: UACC-62 melanoma
[56] = test system: UO-31 renal

## CC(=O)N[C@@H](Cc1ccc(OP(=O)(O)O)cc1)C(=O)N[C@H]1CCC(=O)N2CCC[C@@H](C(=O)NCc3ccc(O)cc3)N2C1=O
[1]
  GI50: > 25 µM
  TGI: > 25 µM
[2]
  GI50: > 25 µM
  TGI: > 25 µM
[3]
  GI50: > 25 µM
  TGI: > 25 µM
[4]
  GI50: > 25 µM
  TGI: > 25 µM
[5]
  GI50: > 25 µM
  TGI: > 25 µM
[6]
  GI50: > 25 µM
  TGI: > 25 µM
[7]
  GI50: > 25 µM
  TGI: > 25 µM
[8]
  GI50: > 25 µM
  TGI: > 25 µM
[9]
  GI50: > 25 µM
  TGI: > 25 µM
[10]
  GI50: > 25 µM
  TGI: > 25 µM
[11]
  GI50: > 25 µM
  TGI: > 25 µM
[12]
  GI50: > 25 µM
  TGI: > 25 µM
[13]
  GI50: > 25 µM
  TGI: > 25 µM
[14]
  GI50: > 25 µM
  TGI: > 25 µM
[15]
  GI50: > 25 µM
  TGI: > 25 µM
[16]
  GI50: > 25 µM
  TGI: > 25 µM
[17]
  GI50: > 25 µM
  TGI: > 25 µM
[18]
  GI50: > 25 µM
  TGI: > 25 µM
[19]
  GI50: > 25 µM
  TGI: > 25 µM
[20]
  GI50: > 25 µM
  TGI: > 25 µM
[21]
  GI50: > 25 µM
  TGI: > 25 µM
[22]
  GI50: > 25 µM
  TGI: > 25 µM
[23]
  GI50: > 25 µM
  TGI: > 25 µM
[24]
  GI50: > 25 µM
  TGI: > 25 µM
[25]
  GI50: > 25 µM
  TGI: > 25 µM
[26]
  GI50: > 25 µM
  TGI: > 25 µM
[27]
  GI50: > 25 µM
  TGI: > 25 µM
[28]
  GI50: > 25 µM
  TGI: > 25 µM
[29]
  GI50: > 25 µM
  TGI: > 25 µM
[30]
  GI50: > 25 µM
  TGI: > 25 µM
[31]
  GI50: > 25 µM
  TGI: > 25 µM
[32]
  GI50: > 25 µM
  TGI: > 25 µM
[33]
  GI50: > 25 µM
  TGI: > 25 µM
[34]
  GI50: > 25 µM
  TGI: > 25 µM
[35]
  GI50: > 25 µM
  TGI: > 25 µM
[36]
  GI50: > 25 µM
  TGI: > 25 µM
[37]
  GI50: > 25 µM
  TGI: > 25 µM
[38]
  GI50: > 25 µM
  TGI: > 25 µM
[39]
  GI50: > 25 µM
  TGI: > 25 µM
[40]
  GI50: > 25 µM
  TGI: > 25 µM
[41]
  GI50: > 25 µM
  TGI: > 25 µM
[42]
  GI50: > 25 µM
  TGI: > 25 µM
[43]
  GI50: > 25 µM
  TGI: > 25 µM
[44]
  GI50: > 25 µM
  TGI: > 25 µM
[45]
  GI50: > 25 µM
  TGI: > 25 µM
[46]
  GI50: > 25 µM
  TGI: > 25 µM
[47]
  GI50: > 25 µM
  TGI: > 25 µM
[48]
  GI50: > 25 µM
  TGI: > 25 µM
[49]
  GI50: > 25 µM
  TGI: > 25 µM
[50]
  GI50: > 25 µM
  TGI: > 25 µM
[51]
  GI50: > 25 µM
  TGI: > 25 µM
[52]
  GI50: > 25 µM
  TGI: > 25 µM
[53]
  GI50: > 25 µM
  TGI: > 25 µM
[54]
  GI50: > 25 µM
  TGI: > 25 µM
[55]
  GI50: > 25 µM
  TGI: > 25 µM
[56]
  GI50: 24.2 µM
  TGI: > 25 µM
